From patent publication US12590065B2, “Levorphanol prodrugs and processes for making and using them” (Zevra Therapeutics, Inc., priority 2017, dated 2026)

Experiment: stability of the deprotected derivative in aqueous solution
Format: physicochemical
Details: observed after Boc deprotection with 4N HCl in dioxane
Experimental: A solution of 38 in 4N HCl in dioxane (5 mL) was stirred at room temperature for 2 hours. Solvent was evaporated under reduced pressure, the residue was co-evaporated with IPAc and dried to give 40 in quantitative yield. The deprotected derivative 40 was not stable in aqueous solution. Compound 40 was converted to the acetyl derivative 42.

**Q.** With `CC(C)[C@H](N)C(=O)OCOC(=O)Oc1ccc2c(c1)[C@@]13CCCC[C@H]1[C@@H](C2)N(C)CC3` [Compound 40, 3-(Val-OCH2OC(O))-Levorphanol] as the molecule, how does the “stability in aqueous solution” value read?
**A.** not stable
